According to patent US20230310464A1, “USE OF C[…] THE TREATMENT OF SEIZURES ASSOCIATED WITH RARE […] SYNDROMES RELATED TO BRAIN INJURY” (GW Research Limited, priority 2020, published 2023):

System: seizures associated with hypoxic ischaemic encephalopathy (HIE) or anoxia at birth
Assay: Open label, expanded-access program: seizure frequency recorded by caregivers in a diary, relative to baseline
Format: in vivo, human
Design: reduction in tonic seizures over the treatment period / reduction in spasms over the treatment period / reduction in absence seizures over the treatment period / reduction in tonic-clonic seizures over the treatment period / reduction in myoclonic seizures over the treatment period: concentration or dose not given beside the values; Seizure frequency, Tonic / Seizure frequency, Spasm / Seizure frequency, Absence / Seizure frequency, Tonic-clonic / Seizure frequency, Focal with impairment / Seizure frequency, Atonic / Seizure frequency, Focal without impairment / Seizure frequency, Focal secondary generalisation / Seizure frequency, Myoclonic: unit not given here
Description: Subjects were required to be on one or more AEDs at stable doses for a minimum of two weeks prior to baseline and to have stable vagus nerve stimulation (VNS) settings and ketogenic diet ratios for a minimum of four weeks prior to baseline.
Dose was then increased weekly by 5 mg/kg/day to a goal of 20 to 25 mg/kg/day.
Modifications were made to concomitant AEDs as per clinical indication.
Seizure frequency, intensity, and duration were recorded by caregivers in a diary during a baseline period of at least 28 days. Changes in seizure frequency relative to baseline were calculated after at least 2 weeks and at defined timepoints of treatment.
Patients may be defined as responders if they had more than 50% reduction in seizure frequency compared to baseline. The percent change in seizure frequency was calculated as follows: […]
The percent change of seizure frequency may be calculated for any time interval where seizure number has been recorded. For the purpose of this example the percent change of seizure frequency for the end of the treatment period was calculated as follows: […]

[1] = Patient 1, 2 weeks, CBD 8.3 mg/kg/day
[2] = Patient 1, 4 weeks, CBD 20.8 mg/kg/day
[3] = Patient 1, 8 weeks, CBD 25.2 mg/kg/day
[4] = Patient 1, 16 weeks, CBD 23.4 mg/kg/day
[5] = Patient 1, 24 weeks, CBD 22.9 mg/kg/day
[6] = Patient 1, 36 weeks, CBD 25.7 mg/kg/day
[7] = Patient 1, 48 weeks, CBD 21.8 mg/kg/day
[8] = Patient 1, treated for 48 weeks, vs baseline
[9] = Patient 2, 4 weeks, CBD 20.0 mg/kg/day
[10] = Patient 2, 8 weeks, CBD 25.0 mg/kg/day
[11] = Patient 2, 16 weeks, CBD 25.0 mg/kg/day
[12] = Patient 2, 24 weeks, CBD 25.0 mg/kg/day
[13] = Patient 2, 36 weeks, CBD 25.0 mg/kg/day
[14] = Patient 2, 48 weeks, CBD 25.0 mg/kg/day
[15] = Patient 2, 60 weeks, CBD 25.0 mg/kg/day
[16] = Patient 2, 72 weeks, CBD 25.0 mg/kg/day
[17] = Patient 2, 84 weeks, CBD 25.0 mg/kg/day
[18] = Patient 2, treated for 84 weeks, vs baseline
[19] = Patient 3, 4 weeks, CBD 5.0 mg/kg/day
[20] = Patient 3, 8 weeks, CBD 20.0 mg/kg/day
[21] = Patient 3, 12 weeks, CBD 25.0 mg/kg/day
[22] = Patient 3, 16 weeks, CBD 25.0 mg/kg/day
[23] = Patient 3, 24 weeks, CBD 30.0 mg/kg/day
[24] = Patient 3, 36 weeks, CBD 40.0 mg/kg/day
[25] = Patient 3, 48 weeks, CBD 50.0 mg/kg/day
[26] = Patient 3, 72 weeks, CBD 50.0 mg/kg/day
[27] = Patient 3, 84 weeks, CBD 50.0 mg/kg/day
[28] = Patient 3, 96 weeks, CBD 50.0 mg/kg/day
[29] = Patient 3, 108 weeks, CBD 50.0 mg/kg/day
[30] = Patient 3, 120 weeks, CBD 50.0 mg/kg/day
[31] = Patient 3, 132 weeks, CBD 50.0 mg/kg/day
[32] = Patient 4, 4 weeks, CBD 5.0 mg/kg/day
[33] = Patient 4, 8 weeks, CBD 5.0 mg/kg/day
[34] = Patient 4, 12 weeks, CBD 10.0 mg/kg/day
[35] = Patient 4, 24 weeks, CBD 15.0 mg/kg/day
[36] = Patient 4, 36 weeks, CBD 15.0 mg/kg/day

## C=C(C)[C@@H]1CCC(C)=C[C@H]1c1c(O)cc(CCCCC)cc1O [CBD, cannabidiol]
[1]
  Seizure frequency, Spasm: 108.0
  Seizure frequency, Tonic: 1044.0
[2]
  Seizure frequency, Spasm: 102.8
  Seizure frequency, Tonic: 904.0
[3]
  Seizure frequency, Spasm: 50.8
  Seizure frequency, Tonic: 770.0
[4]
  Seizure frequency, Spasm: 78.0
  Seizure frequency, Tonic: 764.8
[5]
  Seizure frequency, Spasm: 48.0
  Seizure frequency, Tonic: 917.2
[6]
  Seizure frequency, Spasm: 51.2
  Seizure frequency, Tonic: 634.0
[7]
  Seizure frequency, Spasm: 69.2
  Seizure frequency, Tonic: 424.8
[8]
  reduction in spasms over the treatment period: 44.2%
  reduction in tonic seizures over the treatment period: 59.8%
[9]
  Seizure frequency, Absence: 52.0
  Seizure frequency, Spasm: 440.0
[10]
  Seizure frequency, Absence: 52.0
  Seizure frequency, Spasm: 600.0
[11]
  Seizure frequency, Absence: 12.0
  Seizure frequency, Spasm: 632.0
[12]
  Seizure frequency, Absence: 24.0
  Seizure frequency, Spasm: 580.0
[13]
  Seizure frequency, Absence: 0
  Seizure frequency, Spasm: 560.0
[14]
  Seizure frequency, Absence: 0
  Seizure frequency, Spasm: 490.0
[15]
  Seizure frequency, Absence: 0
  Seizure frequency, Spasm: 196.0
[16]
  Seizure frequency, Absence: 0
  Seizure frequency, Spasm: 300.0
[17]
  Seizure frequency, Absence: 0
  Seizure frequency, Spasm: 340.0
[18]
  reduction in absence seizures over the treatment period: 100%
  reduction in spasms over the treatment period: 41.4%
[19]
  Seizure frequency, Focal with impairment: 43.0
  Seizure frequency, Tonic: 193.0
  Seizure frequency, Tonic-clonic: 2.0
[20]
  Seizure frequency, Focal with impairment: 132.0
  Seizure frequency, Tonic: 132.0
  Seizure frequency, Tonic-clonic: 0
[21]
  Seizure frequency, Focal with impairment: 38.0
  Seizure frequency, Tonic: 123.0
  Seizure frequency, Tonic-clonic: 0
[22]
  Seizure frequency, Focal with impairment: 46.0
  Seizure frequency, Tonic: 120.0
  Seizure frequency, Tonic-clonic: 6.0
[23]
  Seizure frequency, Focal with impairment: 51.2
  Seizure frequency, Tonic: 122.0
  Seizure frequency, Tonic-clonic: 4.8
[24]
  Seizure frequency, Tonic: 124.8
  Seizure frequency, Tonic-clonic: 20.0
[25]
  Seizure frequency, Focal with impairment: 38.8
  Seizure frequency, Tonic: 136.0
  Seizure frequency, Tonic-clonic: 11.2
[26]
  Seizure frequency, Focal with impairment: 53.0
  Seizure frequency, Tonic: 94.7
  Seizure frequency, Tonic-clonic: 4.0
[27]
  Seizure frequency, Focal with impairment: 53.0
  Seizure frequency, Tonic: 72.0
  Seizure frequency, Tonic-clonic: 5.7
[28]
  Seizure frequency, Focal with impairment: 46.3
  Seizure frequency, Tonic: 70.0
  Seizure frequency, Tonic-clonic: 11.6
[29]
  Seizure frequency, Focal with impairment: 46.4
  Seizure frequency, Tonic: 35.0
  Seizure frequency, Tonic-clonic: 10.4
[30]
  Seizure frequency, Focal with impairment: 62.8
  Seizure frequency, Tonic: 46.8
  Seizure frequency, Tonic-clonic: 9.8
[31]
  Seizure frequency, Focal with impairment: 77.2
  Seizure frequency, Tonic: 54.4
  Seizure frequency, Tonic-clonic: 12.0
[32]
  Seizure frequency, Atonic: 0
  Seizure frequency, Tonic: 4.0
  Seizure frequency, Tonic-clonic: 13.0
[33]
  Seizure frequency, Atonic: 0
  Seizure frequency, Tonic: 3.0
  Seizure frequency, Tonic-clonic: 18.0
[34]
  Seizure frequency, Atonic: 0
  Seizure frequency, Tonic: 0
  Seizure frequency, Tonic-clonic: 10.0
[35]
  Seizure frequency, Atonic: 6.0
  Seizure frequency, Tonic: 0
  Seizure frequency, Tonic-clonic: 0.6
[36]
  Seizure frequency, Atonic: 1.7
  Seizure frequency, Tonic: 0
